Source: patent US7037917B2, “HIV replication inhibiting pyrimidines” (Janssen Pharmaceutica, N.V., priority 1998, dated 2006)
Structures can show the parent of a compound that is named as a salt.

System: mock-infected MT-4 cells
Experiment: cytotoxicity in mock-infected MT-4 cells (MTT)
Type: cell-based
Conditions: not given
Compound `Cc1cc(Br)cc(C)c1Nc1nc(Nc2ccc(C#N)cc2)ncc1Cl` [Compound 9] has a CC50 of 1.2 µM.
With `Cc1cc(Br)cc(Cl)c1Oc1nc(Nc2ccc(C#N)cc2)ncc1Cl` [Compound 15] the CC50 was over 100 µM.
Work on `Cc1cc(C#N)cc(C)c1Nc1nc(Nc2ccc(C#N)cc2)ncc1Cl` [Compound 13] yielded a CC50 of 0.4 µM.
With `Cc1cc(C(C)(C)C)cc(C)c1Nc1nc(Nc2ccc(C#N)cc2)ncc1Cl` [Compound 12] the CC50 was 48.5 µM.
In the case of `Cc1cc(Cl)cc(C)c1Oc1nc(Nc2ccc(C#N)cc2)ncc1Cl` [Compound 16], the CC50 is reported as over 100 µM.
With `Cc1cc(Br)cc(C)c1Oc1nc(Nc2ccc(C#N)cc2)ncc1Cl` [Compound 8] the CC50 was over 100 µM.
Work on `Cc1cc(C)c(Sc2nc(Nc3ccc(C#N)cc3)ncc2Cl)c(C)c1` [Compound 7] yielded a CC50 of over 100 µM.
`Cc1cc(C#N)cc(C)c1Oc1nc(Nc2ccc(C#N)cc2)ncc1Cl` [Compound 18] showed a CC50 of over 10 µM.
For `Cc1cc(C#N)cc(C)c1Oc1nc(N(COC(=O)C(C)(C)C)c2ccc(C#N)cc2)ncc1Br` [Compound 60], the CC50 was 74.5 µM.
Work on `N#Cc1ccc(Nc2ncc(Cl)c(Nc3c(F)cc(Br)cc3Br)n2)cc1` [Compound 11] yielded a CC50 of 0.4 µM.

System: not listed separately
Experiment: cytotoxicity in mock-infected MT-4 cells (MTT)
Type: cell-based
Conditions: human, mock-infected MT-4 cells; concentration reducing absorbance of mock-infected MT-4 control by 50%; MTT
With `Cc1cc(C)c(Nc2nc(Nc3ccc(C#N)cc3)ncc2Cl)c(C)c1` [Compound 5, 4-[[5-chloro-4-[(2,4,6-trimethylphenyl)amino]-2-pyrimidinyl]amino]benzonitrile] the CC50 was 0.4 µM.
Work on `Cc1cc(Br)c(Nc2nc(Nc3ccc(C#N)cc3)ncc2Cl)c(Br)c1` [Compound 10, 4-[[5-chloro-4-[(2,6-dibromo-4-methylphenyl)amino]-2-pyrimidinyl]amino]benzonitrile] yielded a CC50 of 0.4 µM.
In the case of `Cc1cc(C)c(Oc2nc(Nc3ccc(C#N)cc3)ncc2Cl)c(C)c1` [Compound 6, 4-[[5-chloro-4-(2,4,6-trimethylphenoxy)-2-pyrimidinyl]amino]benzonitrile], the CC50 is reported as over 100 µM.
Compound `Cc1cc(C#N)cc(C)c1Oc1nc(Nc2ccc(C#N)cc2)ncc1Br` [Compound 17, 4-[[5-bromo-4-(4-cyano-2,6-dimethylphenoxy)-2-pyrimidinyl]amino]benzonitrile] has a CC50 of over 10 µM.
`Cc1cc(C#N)cc(C)c1Oc1nc(Nc2ccc(C#N)cc2)nc(N)c1Br` [Compound 46, 4-[[4-amino-5-bromo-6-(4-cyano-2,6-dimethylphenyloxy)-2-pyrimidinyl]amino]benzonitrile] showed a CC50 of over 200 µM.
`Cc1cc(C)c(Nc2ncc(Cl)c(Nc3ccc(C#N)cc3)n2)c(C)c1` [Compound 1, 4-[[5-chloro-2-[(2,4,6-trimethylphenyl)amino]-4-pyrimidinyl]amino]benzonitrile] gave a CC50 of 10.9 µM.
In the case of `Cc1cc(C)c(Nc2nc(Nc3ccc(C#N)cc3)nc(N)c2Cl)c(C)c1.O=C(O)C(F)(F)F` [Compound 4, 4-[[4-amino-5-chloro-6-[(2,4,6-trimethylphenyl)amino]-2-pyrimidinyl]amino]benzonitrile trifluoroacetate (1:1)], the CC50 is reported as 10 µM.
Work on `Cc1cc(C)c(Nc2ncc(Br)c(Nc3ccc(C#N)cc3)n2)c(C)c1` [Compound 2, 4-[[5-bromo-2-[(2,4,6-trimethylphenyl)amino]-4-pyrimidinyl]amino]benzonitrile] yielded a CC50 of 82.6 µM.
Compound `Cc1cc(C)c(Nc2nc(Nc3ccc(C#N)cc3)ncc2Br)c(C)c1` [Compound 3, 4-[[5-bromo-4-[(2,4,6-trimethylphenyl)amino]-2-pyrimidinyl]amino]benzonitrile] has a CC50 of 4.4 µM.
Work on `COC(=O)COCC(=O)N(c1ccc(C#N)cc1)c1ncc(Br)c(Oc2c(C)cc(C#N)cc2C)n1` [Compound 61] yielded a CC50 of over 100 µM.

System: not given
Experiment: not given
Conditions: not given
`C=Cc1cnc(Nc2ccc(C#N)cc2)nc1Nc1c(C)cc(C)cc1C` (as salt: trifluoroacetate) [Compound 54, 4-[[5-ethenyl-4-[(2,4,6-trimethylphenyl)amino]-2-pyrimidinyl]amino]benzonitrile] gave a melting point of 237 to 242 °C.
For `Cc1cc(C#N)cc(C)c1Oc1nc(Nc2ccc(C#N)cc2)nc(C)c1Br` [Compound 44, 4-[[5-bromo-4-(4-cyano-2,6-dimethylphenoxy)-6-methyl-2-pyrimidinyl]amino]benzonitrile], the melting point was 260 to 262 °C.
For `CONc1nc(Nc2ccc(C#N)cc2)nc(Oc2c(C)cc(C#N)cc2C)c1Br` [Compound 48, 4-[[5-bromo-4-(4-cyano-2,6-dimethylphenoxy)-6-(methoxyamino)-2-pyrimidinyl]amino]benzonitrile], the melting point was 185 to 186 °C.
Work on `C#Cc1cnc(Nc2ccc(C#N)cc2)nc1Nc1c(C)cc(C)cc1C` [Compound 52, 4-[[5-ethynyl-4-[(2,4,6-trimethylphenyl)amino]-2-pyrimidinyl]amino]benzonitrile] yielded a melting point of 165 to 175 °C.
Work on `Cc1cc(C)c(Nc2nc(Nc3ccc(C#N)cc3)nc(Cl)c2Br)c(C)c1` [Compound 41, 4-[[5-bromo-4-chloro-6-[(2,4,6-trimethylphenyl)amino]-2-pyrimidinyl]amino]benzonitrile] yielded a melting point of 220 to 221 °C.
`Cc1cc(C#N)cc(C)c1Oc1nc(Nc2ccc(C#N)cc2)ncc1N` [Compound 50, 4-[[5-amino-4-(4-cyano-2,6-dimethylphenoxy)-2-pyrimidinyl]amino]benzonitrile] gave a melting point of over 300 °C.
For `Cc1cc(C)c(Nc2nc(Nc3ccc(C#N)cc3)ncc2-c2ccccc2)c(C)c1` [Compound 53, 4-[[5-phenyl-4-[(2,4,6-trimethylphenyl)amino]-2-pyrimidinyl]amino]benzonitrile], the melting point was 209 to 214 °C.
Work on `Cc1cc(C#N)cc(C)c1Nc1nc(Nc2ccc(C#N)cc2)nc(Cl)c1Br` [Compound 42, 4-[[5-bromo-4-chloro-6-[(4-cyano-2,6-dimethylphenyl)amino]-2-pyrimidinyl]amino]benzonitrile] yielded a melting point of 259 to 260 °C.
With `Cc1cc(C)c(Nc2nc(Nc3ccc(C#N)cc3)ncc2N)c(C)c1` (as salt: trifluoroacetate) [Compound 51, 4-[[5-amino-4-[(2,4,6-trimethylphenyl)amino]-2-pyrimidinyl]amino]benzonitrile] the melting point was 224 to 225 °C.
For `Cc1cc(C#N)cc(C)c1Oc1nc(Nc2ccc(C#N)cc2)nc(NCCN2CCCC2)c1Br.Cl`, the melting point was 208 to 210 °C.
Compound `Cc1cc(C#N)cc(C)c1Nc1nc(Nc2ccc(C#N)cc2)ncc1Br` [Compound 45, 4-[[5-bromo-6-[(4-cyano-2,6-dimethylphenyl)amino]-2-pyrimidinyl]amino]benzonitrile] has a melting point of 277 to 280 °C.

System: HIV-1
Experiment: not given
Conditions: dose achieving 50% protection of HIV-infected MT-4 cells against cytopathic effect; MTT, OD 540 nm
Compound `Cc1cc(C#N)cc(C)c1Oc1nc(N(COC(=O)C(C)(C)C)c2ccc(C#N)cc2)ncc1Br` [Compound 60] has an IC50 of 0.002 µM.

Same assay, conditions: ratio of CC50 to IC50
With `COC(=O)COCC(=O)N(c1ccc(C#N)cc1)c1ncc(Br)c(Oc2c(C)cc(C#N)cc2C)n1` [Compound 61] the “SI (selectivity index)” value was over 52631.

System: HIV-1
Experiment: microbe, parasite or virus in culture
Conditions: Human immunodeficiency virus 1, MT4
Experimental: A rapid, sensitive and automated assay procedure was used for the in vitro evaluation of anti-HIV agents. […] Inhibition of the HIV-induced cytopathic effect was used as the end point. […] The percent protection achieved by the compound in HIV-infected cells was calculated by the following formula:
[formula] whereby (ODT)HIV is the optical density measured with a given concentration of the test compound in HIV-infected cells; (ODC)HIV is the optical density measured for the control untreated HIV-infected cells; (ODC)MOCK is the optical density measured for the control untreated mock-infected cells; all optical density values were determined at 540 nm. […] The ratio of CC50 to IC50 was defined as the selectivity index (SI).
For `COC(=O)COCC(=O)N(c1ccc(C#N)cc1)c1ncc(Br)c(Oc2c(C)cc(C#N)cc2C)n1` [Compound 61], the IC50 was 0.002 µM.
